This note sets out measurements from ChEMBL document CHEMBL1123151, “Carbocyclic analogues of 5'-amino-5'-deoxy- and 3'-amino-3'-deoxythymidines” (1986).

Test [1] concerns L929. Briefly: Compound was tested for inhibition against replication of type 1 herpes simplex virus (HSV-2,strain MS) in L929 cells. The class given is functional, Mus musculus.
Test [2] relates to L929. Briefly: Compound was tested for inhibition against replication of type 1 herpes simplex virus (HSV-1,strain 377) in L929 cells. It is filed as functional, Mus musculus.
The subject of test [3] is Vero. In words: Compound was tested for inhibition against replication of type 1 herpes simplex virus (HSV-1,strain 377) in vero cells; Experiment 4. The class given is functional, Chlorocebus sabaeus.
Test [4] is described as follows: Ratio of the virus rating of the thymidine analogue to the virus rating of ara-A in vero cells; Experiment 3. The class given is functional.
Test [5] concerns L929. In words: Compound was tested for inhibition against replication of type 1 herpes simplex virus (HSV-1,strain 377) in L929 cells; Experiment 2. It is filed as functional, Mus musculus.
A short description of test [6]: Ratio of the virus rating of the thymidine analogue to the virus rating of ara-A in vero cells; Experiment 2. The class given is functional.
Test [7] deals with Vero. Briefly: Compound was tested for inhibition against replication of type 1 herpes simplex virus (HSV-1,strain 377) in vero cells; Experiment 3. It is filed as functional, Chlorocebus sabaeus.
Test [8] has as its system Vero. Briefly: Compound was tested for inhibition against replication of type 1 herpes simplex virus (HSV-1,strain 377) in vero cells; Experiment 2. It is filed as functional, Chlorocebus sabaeus.
Test [9] can be described thus: Ratio of the virus rating of the thymidine analogue to the virus rating of ara-A in vero cells; Experiment 4. The class given is functional.
In test [10] the test system is Vero. Briefly: Compound was tested for inhibition against replication of type 1 herpes simplex virus (HSV-1,strain 377) in vero cells. It is filed as functional, Chlorocebus sabaeus.
The subject of test [11] is L929. Briefly: Compound was tested for inhibition against replication of type 1 herpes simplex virus (HSV-1,strain 377) in L929 cells; Experiment 1. It is filed as functional, Mus musculus.
The nature of test [12]: Ratio of the virus rating of the thymidine analogue to the virus rating of ara-A; Experiment 1. The class given is functional.
Test [13] can be described thus: Ratio of the virus rating of the thymidine analogue to the virus rating of ara-A; Experiment 2. The class given is functional.
The subject of the next test is HEp-2. Briefly: Compound was tested for inhibition against replication of type 1 herpes simplex virus (HSV-1,strain HF) in human epidermoid carcinoma cells. It is filed as functional.
A short description of test [14]: Ratio of the virus rating of the thymidine analogue to the virus rating of ara-A. The class given is functional.
Test [15] relates to L929. In words: Compound was tested for inhibition against replication of type 1 herpes simplex virus (HSV-1,strain 377) L929 cells. The class given is functional, Mus musculus.
The test system of test [16] is Vero. Briefly: Compound was tested for inhibition against replication of type 1 herpes simplex virus (HSV-1, strain 377) in vero cells; Experiment 5. It is filed as functional, Chlorocebus sabaeus.
The subject of test [17] is Vero. Briefly: Compound was tested for inhibition against replication of type 1 herpes simplex virus (HSV-1, strain 377) in vero cells; Experiment 2. The class given is functional, Chlorocebus sabaeus.

`Cc1cn([C@@H]2C[C@H](CO)[C@H](N=[N+]=[N-])C2)c(=O)[nH]c1=O`: the VR in the test with L929 [1] was determined as 0; with L929 [2], 0.2; with Vero [3], 0.8; with L929 [5], 0; in the test on Vero [7] it was 1; with Vero [8] it was 0.6. Moreover, the Ratio in [4] was 0.5; in test [6], 0.43; in [9] it was 0.44.

For `Cc1cn([C@@H]2C[C@H](CO)[C@@H](N=[N+]=[N-])C2)c(=O)[nH]c1=O`, the VR with Vero [10] came out at 0.

As to `Cc1cn(C2CC(O)C(CN)C2)c(=O)[nH]c1=O` (stereo not given), the VR with L929 [1] was 0.5; in the test on L929 [11], 3; in the test on Vero [3], 0; with L929 [5], 1.8; in the test on HEp-2, 0.2; in the test with Vero [7], 0. Further, the values for the Ratio in test [12] and in test [13] were 1 and 1.28, respectively.

Take `Cc1cn(C2CC(O)C(CN=[N+]=[N-])C2)c(=O)[nH]c1=O` (stereo not given): the VR in the test with L929 [1] worked out at 0; in the test with L929 [2] it was 0.8; in the test on HEp-2, 0. Moreover, the Ratio in test [14] was 0.27.

In the case of `Cc1cn([C@@H]2C[C@H](CO)[C@@H](N)C2)c(=O)[nH]c1=O`, the figures for the VR in the test on Vero [3], with L929 [15] and in the test on Vero [8] were 0.4, 0.4 and 0, respectively. Besides, in test [14], the Ratio is 0.

With `Cc1cn([C@@H]2C[C@H](CO)[C@H](N)C2)c(=O)[nH]c1=O`, the VR with Vero [16] is given as 0; in the test on Vero [17], 0; in the test on L929 [5], 0.9. Moreover, the Ratio in test [13] worked out at 0.9.
